Assays:
[1] = target: cGMP-dependent 3',5'-cyclic phosphodiesterase (Homo sapiens, UniProt O00408); assay: ChEBML_217498
Protocol: Inhibition of human lung low-affinity cGMP phosphodiesterases (10-50 uM/L)

[2] = target: cGMP-specific 3',5'-cyclic phosphodiesterase (Homo sapiens, UniProt O76074); assay: ChEBML_217497
Protocol: Inhibition of human lung high-affinity cGMP phosphodiesterases (0.5-2 uM/L)

Sequence of cGMP-dependent 3',5'-cyclic phosphodiesterase (O00408 whole entry): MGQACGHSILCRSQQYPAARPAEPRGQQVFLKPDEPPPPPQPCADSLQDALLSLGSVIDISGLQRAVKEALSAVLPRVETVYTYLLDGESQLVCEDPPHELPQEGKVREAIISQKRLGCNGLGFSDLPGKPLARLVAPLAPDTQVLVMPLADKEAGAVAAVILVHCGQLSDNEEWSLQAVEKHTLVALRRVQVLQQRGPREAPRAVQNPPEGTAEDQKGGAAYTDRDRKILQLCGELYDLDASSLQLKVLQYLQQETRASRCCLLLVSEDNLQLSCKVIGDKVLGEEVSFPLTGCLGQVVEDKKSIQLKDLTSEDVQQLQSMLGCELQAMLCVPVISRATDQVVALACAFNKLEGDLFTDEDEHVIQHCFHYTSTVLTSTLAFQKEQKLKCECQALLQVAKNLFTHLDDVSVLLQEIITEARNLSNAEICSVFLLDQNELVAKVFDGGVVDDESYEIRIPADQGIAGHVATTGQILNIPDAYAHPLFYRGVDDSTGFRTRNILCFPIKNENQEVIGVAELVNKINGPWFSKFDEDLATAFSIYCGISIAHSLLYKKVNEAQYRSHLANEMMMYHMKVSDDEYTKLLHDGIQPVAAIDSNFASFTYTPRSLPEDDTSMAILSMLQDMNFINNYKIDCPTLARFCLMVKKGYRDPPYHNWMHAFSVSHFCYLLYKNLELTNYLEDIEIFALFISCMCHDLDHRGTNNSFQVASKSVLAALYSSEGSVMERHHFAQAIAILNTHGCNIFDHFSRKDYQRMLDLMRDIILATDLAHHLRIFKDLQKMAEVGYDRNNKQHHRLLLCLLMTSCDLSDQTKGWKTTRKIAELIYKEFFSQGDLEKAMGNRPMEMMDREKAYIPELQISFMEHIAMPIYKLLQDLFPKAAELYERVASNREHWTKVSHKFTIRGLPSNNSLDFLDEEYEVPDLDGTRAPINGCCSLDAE

| Ki [1] | Ki [2] | Compound |
| --- | --- | --- |
| 600 µM | 600 µM | CC(O)Cn1cnc2c1c(=O)n(C)c(=O)n2C (stereo unspecified) [7-(2-Hydroxy-propyl)-1,3-dimethyl-3,7-dihydro-purine-2,6-dione(Proxyphylline)] |
| 600 µM | 600 µM | C[C@@H](O)Cn1cnc2c1c(=O)n(C)c(=O)n2C [(R)-7-(2-hydroxypropyl)-1,3-dimethyl-1H-purine-2,6(3H,7H)-dione] |
| 700 µM | 600 µM | C[C@H](O)Cn1cnc2c1c(=O)n(C)c(=O)n2C [(S)-7-(2-hydroxypropyl)-1,3-dimethyl-1H-purine-2,6(3H,7H)-dione] |
